Results as given in patent publication US10640527B2, “Mesitylene-cored amphiphiles and uses thereof” (Industry-University Cooperation Foundation Hanyang …, priority 2016, dated 2020).

Experiments:
[1] = Critical micelle concentration by fluorophore encapsulation using diphenylhexatriene (DPH); type: physicochemical; conditions: aqueous solution
Description: A method of measuring a CMC is not particularly limited, and those methods widely known in the related field may be used. For example, a CMC may be measured by a fluorophore encapsulation method using diphenylhexatriene (DPH).
(§1) Specifically, a CMC was measured by a fluorophorescent encapsulation method using diphenylhexatriene (DPH) and an Rh of a micelle formed by each formulation (1.0 wt %) was measured using a dynamic light scattering (DLS) experiment.

[2] = molecular target: T1, uric acid-xanthine/H+ symporter (UapA) (Emericella nidulans, UniProt Q07307, G411V); test: UapA structural (thermal) stability, CPM assay; type: biochemical, Aspergillus nidulans; conditions: for effect in maintaining folded UapA, ranking among MGAs: CMC+0.2 wt %, 40° C., 120 minutes
T1 construct: GFP; made in house; host or cells: Saccharomyces cerevisiae FGY217
T1 sequence (Q07307 12-574 G411V): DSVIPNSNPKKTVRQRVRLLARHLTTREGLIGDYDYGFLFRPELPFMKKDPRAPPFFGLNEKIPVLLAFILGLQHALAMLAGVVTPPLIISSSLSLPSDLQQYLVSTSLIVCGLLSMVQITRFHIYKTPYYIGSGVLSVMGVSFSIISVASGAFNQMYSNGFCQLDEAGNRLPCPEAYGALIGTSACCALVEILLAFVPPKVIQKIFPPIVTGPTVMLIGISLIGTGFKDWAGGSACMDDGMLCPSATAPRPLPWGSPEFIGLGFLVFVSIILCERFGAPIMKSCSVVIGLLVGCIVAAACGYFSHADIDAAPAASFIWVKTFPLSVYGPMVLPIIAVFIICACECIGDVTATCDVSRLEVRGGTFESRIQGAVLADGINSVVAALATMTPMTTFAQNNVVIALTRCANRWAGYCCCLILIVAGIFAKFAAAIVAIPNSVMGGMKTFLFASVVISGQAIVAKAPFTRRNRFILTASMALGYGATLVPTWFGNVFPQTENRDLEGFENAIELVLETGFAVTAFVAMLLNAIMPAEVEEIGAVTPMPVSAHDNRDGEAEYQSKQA
Description: An experiment for measuring the structural stability of uric acid-xanthine/H^+ symporter (UapA) solubilized in MGAs in an aqueous solution was performed. The structural stability of UapA was measured using a CPM assay, and was measured at MGAs and DDM concentrations of (a) CMC+0.04 wt %, or (b) CMC+0.2 wt %.
Specifically, a UapA protein is a uric acid-xanthine/H^+ symporter in Aspergillus nidulans. Protein stability was measured by fluorescence spectroscopy using N-[4-(7-diethylamino-4-methyl-3-coumarinyl)phenyl]maleimide (CPM) which is a sulfhydryl-specific fluorophore. A free sulfhydryl group of a cysteine residue is in the interior of a protein, but becomes accessible to a solvent upon protein unfolding. CPM becomes fluorescent by a reaction with the free thiol, and thus provides as a protein unfolding sensor. In order to measure thermal stability, first, UapAG411V1-11 was expressed in the Saccharomyces cerevisiae FGY217 strain by fusion with GFP, and separated in a sample buffer (20 mM Tris (pH 7.5), 150 mM NaCl, 0.03% DDM and 1 mM xanthine) according to a method described in a research article (Mol. Membr. Biol. 2013, 30, 32-42) by J. Leung et al. A UapA protein was concentrated to about 10 mg/ml using a 100 kDa molecular weight cut-off filter (Millipore). The concentrated protein was diluted to a ratio of 1:150 with each buffer including DDM or MGA (MGA-C10, MGA-C11, MGA-C12, MGA-C13, MGA-C14 or MGA-C15) at a concentration of CMC+0.04 wt % or CMC+0.2 wt % in a Greiner 96-well plate. A CPM dye (Invitrogen) stored in DMSO (Sigma) was diluted with a dye buffer (20 mM Tris (pH 7.5), 150 mM NaCl, 0.03% DDM and 5 mM EDTA), and 3 μl of the diluted dye was added to each protein sample. The reaction mixture was incubated at 40° C. for 120 minutes. Fluorescence emission was monitored using a microplate spectrofluorometer, with an excitation wavelength at 387 nm and an emission wavelength at 463 nm. Relative maximum fluorescence was used to calculate a percentage of relative folded protein remaining after 120 minutes at 40° C. Relative unfolded proteins were plotted against time using GraphPad Prism.
Specifically, a UapA stabilization effect was evaluated by the same method as in Experimental Example 2 using MGA-C13, MGA-C14, MNG-3 or DDM at a concentration of (a) CMC+0.04 wt % or (b) CMC+0.2 wt %.

[3] = Hydrodynamic radius / size distribution of micelles by dynamic light scattering (DLS); type: physicochemical; conditions: 1.0 wt % amphiphile
Description: A method of measuring a radius of the micelle is not particularly limited, and those methods widely known in the related field may be used, for example, a dynamic light scattering (DLS) experiment may be used for measurement.
as §1

[4] = molecular target: T2, melibiose permease (MelBSt) (Salmonella typhimurium, UniProt P30878); test: MelBSt extraction from membranes and thermal stability, SDS-PAGE and Western blotting; type: biochemical; conditions: 1.5 wt %, 90 minutes
T2 construct: made in house; host or cells: DW2 cells (ΔmelB and ΔlacZY), Salmonella typhimurium DW2
T2 sequence (P30878 whole entry): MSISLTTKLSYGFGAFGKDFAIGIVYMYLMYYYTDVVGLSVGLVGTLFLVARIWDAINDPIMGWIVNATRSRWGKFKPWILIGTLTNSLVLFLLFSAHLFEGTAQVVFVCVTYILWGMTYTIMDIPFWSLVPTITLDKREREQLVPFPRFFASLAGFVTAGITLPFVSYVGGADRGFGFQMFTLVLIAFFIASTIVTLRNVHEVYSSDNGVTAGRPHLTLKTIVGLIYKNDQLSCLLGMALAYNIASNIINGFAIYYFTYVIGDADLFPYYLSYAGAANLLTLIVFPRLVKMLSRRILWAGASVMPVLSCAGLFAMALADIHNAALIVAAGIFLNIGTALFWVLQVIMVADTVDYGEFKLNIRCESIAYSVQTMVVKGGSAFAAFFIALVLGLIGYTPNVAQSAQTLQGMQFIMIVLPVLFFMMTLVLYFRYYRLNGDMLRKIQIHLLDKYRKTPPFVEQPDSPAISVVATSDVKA
Description: An experiment for measuring the structural stability of Salmonella typhimurium melibiose permease (MelBSt) according to MGAs in an aqueous solution was performed. After MelBSt proteins were extracted from a membrane using MGAs or DDM, the amount and structure of extracted proteins were analyzed by SDS-PAGE and western blotting. The concentration of used amphiphiles was 1.5 wt %, and proteins were extracted at four different temperatures of 0, 45, 55 and 65° C. to evaluate both the protein extraction efficiency and stabilizing ability of a compound. A membrane sample which had not been treated with MGAs or DDM was used as a control group.
Specifically, MelBSt stability solubilized in DDM or MGAs was evaluated according to a method described in 2010 in a research article (P. S. Chae et al., Nat. Methods 2010, 7, 1003-1008.) by the inventors of the present invention. Proteins (MelBSt) were produced using plasmid pK95ΔAHB/WT MelBSt/CH10 encoding the wild-type MelB with a 6-His tag at the C-terminus and Salmonella typhimurium DW2 cells (ΔmelB and ΔlacZY). Cell growth and membrane preparation was performed according to a method described in a research article (Nat. Commun. 2014, 5, 3009) by A. S. Ethayathulla, et al. A protein assay was carried out using a Micro BCA kit (Thermo Scientific, Rockford, Ill.). In order to measure protein solubilization, a membrane sample (final protein concentration was 10 mg/mL) containing MelBSt was incubated with a solubilization buffer (20 mM sodium phosphate, pH 7.5, 200 mM NaCl, 10% glycerol and 20 mM melibiose) and 1.5% (w/v) DDM or MGA (MGA-C10, MGA-C11, MGA-C12, MGA-C13, MGA-C14 or MGA-C15) at four different temperatures of 0, 45, 55 and 65° C. for 90 minutes. After ultracentrifugation at 355,590 g in a Beckman Optima™ MAX Ultracentrifuge using a TLA-100 rotor for 45 min at 4° C., 20 μg of a protein was separated by SDS-16% PAGE and immunoblotted with a Penta-His-HRP antibody (Qiagen, Germantown, Md.). MelBSt was measured by an ImageQuant LAS 4000 Biomolecular Imager (GE Healthcare Life Sciences) using a SuperSignal West Pico chemiluminescent substrate.

[5] = system: leucine transporter (LeuT); test: LeuT long-term stability, [3H]-Leu binding by scintillation proximity assay (SPA); type: biochemical, Aquifex aeolicus
Description: An experiment for measuring the structural stability of LeuT proteins according to MGAs (MGA-C11, MGA-C12, MGA-C13, MGA-C14 and MGA-C15) was performed. Each amphiphile was used at a concentration of (a) CMC+0.04 wt % or (b) CMC+0.2 wt %, a ligand-binding activity of LeuT was measured by scintillation proximity assay (SPA) using [^3H]-Leucine. The measurement was performed at regular intervals at room temperature during 12 days of incubation.
Specifically, a thermophilic bacteria Aquifex aeolicus-derived wild type LeuT was purified using a previously described method (Nature, G. Deckert et al., 1998, 392, 353-358). To sum up, the LeuT was expressed in E. coli C41 (DE3) cultured in a lysogeny broth medium supplemented with 0.1 mg/ml ampicillin. Expression of proteins was induced by adding isopropyl β-D-thiogalactopyranoside to a final concentration of 0.1 mM.
A cell membrane was separated from a crushed cell (Constant Systems Homogenizers, Kennesaw, Ga.), and solubilized in 1% (w/v) n-dodecyl-β-D-maltopyranoside (DDM; Affymetrix, Santa Clara, Calif.). After solubilization, LeuT was fixed in a Ni^2+-NTA resin (Life Technologies, Denmark), and eluted in 20 mM Tris-HCl (pH 7.5), 199 mM KCl, 1 mM NaCl, 0.05% (w/v) DDM and 300 mM imidazole. Thereafter, purified LeuT (about 1.5 mg/ml) was diluted tenfold with a buffer supplemented with MGA (MGA-C11, MGA-C12, MGA-C13, MGA-C14 or MGA-C15) or DDM to the final concentration of CMC+0.04% (w/v) or CMC+0.2% (w/v) while excluding DDM and imidazole from the above-described buffers. Protein samples were stored at room temperature for 12 days, and protein activity was determined by measuring [^3H]-Leu binding by SPA at a specified time. SPA was carried out using 450 mM NaCl and buffers containing each MGA, and a SPA reaction was performed in the presence of 20 nM [^3H]-Leu and 1.25 mg/ml copper chelate (His-Tag) YSi beads (Perkin Elmer, Denmark). [^3H]-Leu binding was measured using a MicroBeta liquid scintillation counter (Perkin Elmer).

SMILES	CMC [1]	CMC (wt %) [1]	effect in maintaining folded UapA, ranking among MGAs [2]	Rh (nm), hydrodynamic radius of micelle [3]	UapA stabilization effect compared with MNG-3 ([2]; CMC+0.04 wt % or CMC+0.2 wt %, FIG. 25)	MelBSt protein extraction efficiency compared with DDM ([4]; 45° C.)	MelBSt extraction ability compared with DDM ([4]; 55° C.)	preservation of long-term stability of LeuT, comparison with DDM and ranking ([5]; 12 days at room temperature, CMC+0.04 wt % or CMC+0.2 wt %)	LeuT ligand-binding activity retained, % of initial activity ([5]; after 12 days of incubation at room temperature)
CCCCCCCCCCCCC(CO[C@@H]1OC(CO)[C@@H](O)C(O)C1O)(CO[C@@H]1OC(CO)[C@@H](O)C(O)C1O)Cc1cc(CC(CCCCCCCCCCCC)(CO[C@@H]2OC(CO)[C@@H](O)C(O)C2O)CO[C@@H]2OC(CO)[C@@H](O)C(O)C2O)cc(CC(CCCCCCCCCCCC)(CO[C@@H]2OC(CO)[C@@H](O)C(O)C2O)CO[C@@H]2OC(CO)[C@@H](O)C(O)C2O)c1 (stereo partly drawn) [MGA-C12]	~3.5 µM	~0.0006 wt %	less effective than the above-described MGAs, but still higher than DDM	3.1 ± 0.03 nm					
CCCCCCCCCCCCCCC(CO[C@@H]1OC(CO)[C@@H](O)C(O)C1O)(CO[C@@H]1OC(CO)[C@@H](O)C(O)C1O)Cc1cc(CC(CCCCCCCCCCCCCC)(CO[C@@H]2OC(CO)[C@@H](O)C(O)C2O)CO[C@@H]2OC(CO)[C@@H](O)C(O)C2O)cc(CC(CCCCCCCCCCCCCC)(CO[C@@H]2OC(CO)[C@@H](O)C(O)C2O)CO[C@@H]2OC(CO)[C@@H](O)C(O)C2O)c1 (stereo partly drawn) [MGA-C14]	~2 µM	~0.0004 wt %	had the highest effect	3.4 ± 0.04 nm	far greater UapA stabilization effect than MNG-3	same level of protein extraction efficiency as DDM	higher MelBSt extraction ability than DDM		
CCCCCCCCCCC(CO[C@@H]1OC(CO)[C@@H](O)C(O)C1O)(CO[C@@H]1OC(CO)[C@@H](O)C(O)C1O)Cc1cc(CC(CCCCCCCCCC)(CO[C@@H]2OC(CO)[C@@H](O)C(O)C2O)CO[C@@H]2OC(CO)[C@@H](O)C(O)C2O)cc(CC(CCCCCCCCCC)(CO[C@@H]2OC(CO)[C@@H](O)C(O)C2O)CO[C@@H]2OC(CO)[C@@H](O)C(O)C2O)c1 (stereo partly drawn) [MGA-C10]	~8 µM	~0.0014 wt %	less effective than the above-described MGAs, but still higher than DDM	2.9 ± 0.01 nm					
CCCCCCCCCCCC(CO[C@@H]1OC(CO)[C@@H](O)C(O)C1O)(CO[C@@H]1OC(CO)[C@@H](O)C(O)C1O)Cc1cc(CC(CCCCCCCCCCC)(CO[C@@H]2OC(CO)[C@@H](O)C(O)C2O)CO[C@@H]2OC(CO)[C@@H](O)C(O)C2O)cc(CC(CCCCCCCCCCC)(CO[C@@H]2OC(CO)[C@@H](O)C(O)C2O)CO[C@@H]2OC(CO)[C@@H](O)C(O)C2O)c1 (stereo partly drawn) [MGA-C11]	~5 µM	~0.009 wt %	less effective than the above-described MGAs, but still higher than DDM	3.0 ± 0.04 nm				the most excellent MGA	~90%
